Common to all, as to type: cell-based
Test [1] deals with T1, human P2X7 channel (Homo sapiens, UniProt Q99572).
T1 construct: expressed in transfected cells; host or cells: HEK-293
T1 sequence (Q99572 1-595): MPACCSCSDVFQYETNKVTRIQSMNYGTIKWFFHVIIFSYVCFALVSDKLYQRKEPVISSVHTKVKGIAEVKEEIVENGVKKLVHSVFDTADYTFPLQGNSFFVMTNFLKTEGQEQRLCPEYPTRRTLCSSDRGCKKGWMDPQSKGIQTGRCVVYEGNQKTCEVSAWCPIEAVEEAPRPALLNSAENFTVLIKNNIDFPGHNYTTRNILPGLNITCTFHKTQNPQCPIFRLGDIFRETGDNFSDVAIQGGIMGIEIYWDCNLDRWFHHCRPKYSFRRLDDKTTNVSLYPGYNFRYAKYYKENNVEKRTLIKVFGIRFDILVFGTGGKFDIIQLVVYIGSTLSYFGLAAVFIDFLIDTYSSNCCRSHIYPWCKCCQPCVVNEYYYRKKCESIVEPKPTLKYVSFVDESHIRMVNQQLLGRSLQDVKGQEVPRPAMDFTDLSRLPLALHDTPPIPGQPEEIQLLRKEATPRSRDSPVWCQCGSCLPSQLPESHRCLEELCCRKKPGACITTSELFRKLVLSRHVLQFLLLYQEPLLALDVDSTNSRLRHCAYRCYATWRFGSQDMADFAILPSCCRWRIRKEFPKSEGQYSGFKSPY
Nature of the test: human P2X7 channel assay by automated patch-clamp (QPatch 16X). The settings on record: HEK-293 cells expressing P2X7; current evoked by 100 microM BzATP; whole-cell, held at -80 mV; read-out: human Q-Patch (activity range). Here is the method: In order to directly monitor the block of P2X7 channel, an electrophysiological assay was developed and implemented on the QPatchl6X automated electrophysiology instrument.
HEK-293 cells expressing the P2X7 channels were cultured in modified EMEM.
72 hours before experiment, 5 million cells were seeded onto T225 flasks. Just before the experiment cells were washed twice, detached from the flask with trypsin-EDTA, re-suspended in the suspension solution and placed on the QPatch 16x.
The compounds (20 mM in a 100% DMSO) stored at −20° C. were prepared the day of the experiment (a first dilution 1:20 in 100% DMSO to prepare a 1 mM stock solution, then a 1 microM solution in external solution+a serial dilution 1:10).
The standard whole-cell voltage clamp experiments were performed at room temperature. From these experiments the multihole technology was used and the data were sampled at 2 KHz.
The intracellular solution contained (mM) 135 CsF, 10 NaCl, 1 EGTA, 10 HEPES, (pH 7.2 with CsOH) whereas the extracellular contained (mM) 145 NaCl, 4 KCl, 0.5 MgCl2, 1 CaCl2, 10 HEPES, 10 Glc (pH 7.4 with NaOH).
After establishment of the seal and the passage in the whole cell configuration, the cells were held at −80 mV. The P2XR7 current was evoked by applying 100 microM of BzATP alone (4 times) and then in the presence increasing concentrations of the compound under investigation (1, 10, 100 and 1000 nM).
The pre-incubation periods 5 to 8 contain increasing concentrations of the compound of interest (1, 10, 100 and 1000 nM), as illustrated in FIGURE (application protocol).
The maximal inward current evoked by BzATP in absence or presence of increasing concentrations of the compounds under investigation was measured and normalized. The potential […] effect was measured as % of control and as IC50 determined fitting the dose-response curves data with the following equation:
Here are reported the potency ranges as A, B, C and D, where A is <10 nM; B is 10 nM-100 nM, C is 0.1-1 μM, D is 1-10 μM.
Background: In patch-clamp work, channel activity is measured electrically.

Test [2] has as its target T2, mouseP2X7 (Mus musculus, UniProt Q9Z1M0).
T2 construct: expressed in transfected cells; host or cells: HEK-293
T2 sequence (Q9Z1M0 1-595): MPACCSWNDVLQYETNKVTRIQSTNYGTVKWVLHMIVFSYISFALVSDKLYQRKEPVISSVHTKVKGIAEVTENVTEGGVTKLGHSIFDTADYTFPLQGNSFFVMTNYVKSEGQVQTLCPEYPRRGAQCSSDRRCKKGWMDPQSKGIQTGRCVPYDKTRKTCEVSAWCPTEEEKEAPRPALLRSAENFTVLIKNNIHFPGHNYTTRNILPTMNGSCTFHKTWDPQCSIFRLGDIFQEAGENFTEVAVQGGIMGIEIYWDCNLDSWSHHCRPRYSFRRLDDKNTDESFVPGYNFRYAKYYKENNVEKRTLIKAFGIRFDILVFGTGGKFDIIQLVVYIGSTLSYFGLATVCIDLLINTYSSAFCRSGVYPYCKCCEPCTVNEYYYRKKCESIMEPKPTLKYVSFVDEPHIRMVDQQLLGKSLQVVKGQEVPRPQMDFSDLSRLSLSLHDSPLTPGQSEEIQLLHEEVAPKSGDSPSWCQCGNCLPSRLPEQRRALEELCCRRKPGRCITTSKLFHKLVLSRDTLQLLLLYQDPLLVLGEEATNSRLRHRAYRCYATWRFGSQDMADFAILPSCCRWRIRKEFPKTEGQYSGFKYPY
The test is described as follows: P2X7 channel calcium-influx assay (Fluo-8, FLIPR TETRA), mouse P2X7. To be noted: HEK-293 cells stably transfected with P2X7; Bz-ATP at EC80; low divalent cation buffer; read-out: mouseP2X7 (activity range). How it is done: (§1) Extracellular binding of Bz-ATP to P2X7 receptor opens the channel and allows Ca^2+ influx into the cells. This Ca^2+ entry was measured in HEK-293 cells stably transfected with P2X7 receptor using Screen Quest™ Fluo-8 No Wash Calcium Assay Kit (AAt Bioquest®, cat. 36316). Once inside the cell, the lipophilic blocking groups of Fluo-8 are cleaved by non-specific cell esterases, resulting in a negatively-charged fluorescent dye that stays inside cells. Its fluorescence increases upon binding to calcium. When HEK-293/P2X7 cells are stimulated with Bz-ATP, Ca^2+ enters the cells and the fluorescence of Fluo-8 NW increases. The dye has an absorption spectrum compatible with excitation at 488 nm by argon laser sources and its emission wavelength is in the range of 515-575 nm.
(§2) HEK-293 cells stably transfected with P2X7 receptor were seeded overnight in growth medium at 10,000 to 20,000 cells/well in 384-well plate. 24 hours later, the medium was removed, and the cells were pre-loaded at RT for 1 hour with 20 μL/w of Fluo-8 NW. Then 10 μL/w of test compounds and reference antagonist A438079 at 3×-concentration were injected with the FLIPRTETRA and the kinetic response over a period of five minutes was monitored. A second injection of 15 μL/w of 3× reference activator (Bz-ATP at EC80) was performed with the FLIPR TETRA and the signal of the emitted fluorescence was recorded for additional three minutes. All the experiment was carried out in a Low Divalent Cation Assay Buffer (0.3 mM Ca^2+ and 0 mM Mg^2+). The effect of the test compounds was measured as percent inhibition vs the reference antagonist and IC50 values were calculated accordingly. Here are reported the potency ranges as A, B, C and D, where A is <200 nM; B is 200 nM-1 μM, C is 1-10 μM, D is 10-30 μM.

The target of test [3] is T3, humanP2X7 (Homo sapiens, UniProt Q99572).
T3 construct: expressed in transfected cells; host or cells: HEK-293
T3 sequence (Q99572 1-595): T1 sequence (Q99572 1-595)
The test is described as follows: P2X7 channel calcium-influx assay (Fluo-8, FLIPR TETRA), human P2X7. The settings on record: HEK-293 cells stably transfected with P2X7; Bz-ATP at EC80; low divalent cation buffer; read-out: humanP2X7 (activity range). Here is the method:
as §1, §2

Test [4] has as its target T4, ratP2X7 (Rattus norvegicus, UniProt Q64663).
T4 construct: expressed in transfected cells; host or cells: HEK-293
T4 sequence (Q64663 1-595): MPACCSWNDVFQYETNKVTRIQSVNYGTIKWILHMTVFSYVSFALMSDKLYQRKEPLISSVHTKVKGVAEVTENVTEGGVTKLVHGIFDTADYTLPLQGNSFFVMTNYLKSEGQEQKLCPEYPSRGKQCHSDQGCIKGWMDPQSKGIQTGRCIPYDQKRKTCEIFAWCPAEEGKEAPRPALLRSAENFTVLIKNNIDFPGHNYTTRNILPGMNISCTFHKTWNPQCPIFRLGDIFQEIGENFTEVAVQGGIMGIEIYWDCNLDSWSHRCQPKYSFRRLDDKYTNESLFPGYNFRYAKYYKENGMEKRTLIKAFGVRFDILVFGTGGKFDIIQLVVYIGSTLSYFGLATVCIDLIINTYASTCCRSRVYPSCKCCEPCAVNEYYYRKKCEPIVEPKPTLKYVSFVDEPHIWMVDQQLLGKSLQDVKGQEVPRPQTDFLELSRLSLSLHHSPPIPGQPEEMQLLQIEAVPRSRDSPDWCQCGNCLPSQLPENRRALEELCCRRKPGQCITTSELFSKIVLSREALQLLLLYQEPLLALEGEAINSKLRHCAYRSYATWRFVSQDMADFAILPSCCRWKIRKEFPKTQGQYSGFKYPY
The test is described as follows: P2X7 channel calcium-influx assay (Fluo-8, FLIPR TETRA), rat P2X7. To be noted: HEK-293 cells stably transfected with P2X7; Bz-ATP at EC80; low divalent cation buffer; read-out: ratP2X7 (activity range). Here is the method: as §1, §2

Experimental findings from US20240368092A1, “2,4-Dihydro-3H-1,2,4-Triazol-3-One P2X7 Antagonists” (Breye Therapeutics ApS, priority 2021, published 2024) are described below.

For the compound `Cn1nc(Cc2c(F)cccc2Cl)n(CC2CCC(F)(F)CC2)c1=O` [Example 3, 5-(2-chloro-6-fluorobenzyl)-4-((4,4-difluorocyclohexyl)methyl)-2-methyl-2,4-dihydro-3H-1,2,4-triazol-3-one], the IC50 is 10 to 100 nM in test [1], 200 to 1000 nM in test [2], < 200 nM in test [3] and < 200 nM in test [4].

Turning to `Cn1nc(Cc2c(F)cccc2Cl)n(CC2CC3C(C2)C3(F)F)c1=O` (stereo not shown) [Example 5, 5-(2-chloro-6-fluorobenzyl)-4-((6,6-difluorobicyclo[3.1.0]hexan-3-yl)methyl)-2-methyl-2,4-dihydro-3H-1,2,4-triazol-3-one], the IC50 in test [1] is 10 to 100 nM; in test [2] it was 1000 to 10000 nM; in test [3], 200 to 1000 nM; in test [4], < 200 nM.

For `Cn1nc(Cc2ccc(F)cc2Cl)n(CC2CCCCCC2)c1=O` [Example 11, 5-(2-chloro-4-fluorobenzyl)-4-(cycloheptylmethyl)-2-methyl-2,4-dihydro-3H-1,2,4-triazol-3-one], the IC50 in test [1] is 10 to 100 nM; in test [2], 200 to 1000 nM; in test [3] it was < 200 nM; in test [4], < 200 nM.

With `Cn1nc(Cc2c(F)cccc2Cl)n(CC2CCCCCC2)c1=O` [Example 12, 5-(2-chloro-6-fluorobenzyl)-4-(cycloheptylmethyl)-2-methyl-2,4-dihydro-3H-1,2,4-triazol-3-one], the IC50 in test [1] is < 10 nM; in test [2], < 200 nM; in test [3] it was < 200 nM; in test [4], < 200 nM.

On to `Cn1nc(CC2CCCCC2)n(Cc2ccnc(C(F)(F)F)c2)c1=O` [Example 13, 5-(cyclohexylmethyl)-2-methyl-4-((2-(trifluoromethyl)pyridin-4-yl)methyl)-2,4-dihydro-3H-1,2,4-triazol-3-one], for which the IC50 was 1000 to 10000 nM in test [1], 10000 to 30000 nM in test [2], 10000 to 30000 nM in test [3] and 10000 to 30000 nM in test [4].

On to `Cn1nc(Cc2c(F)cccc2Cl)n(CC2CCC3(CC2)CC3)c1=O` [Example 14, 5-(2-chloro-6-fluorobenzyl)-2-methyl-4-(spiro[2.5]octan-6-ylmethyl)-2,4-dihydro-3H-1,2,4-triazol-3-one], for which the IC50 was < 10 nM in test [1], < 200 nM in test [2], < 200 nM in test [3] and < 200 nM in test [4].

In the case of `Cn1nc(Cc2c(F)cccc2Cl)n(CCC2CCC(F)(F)CC2)c1=O` [Example 15, 5-(2-chloro-6-fluorobenzyl)-4-(2-(4,4-difluorocyclohexyl)ethyl)-2-methyl-2,4-dihydro-3H-1,2,4-triazol-3-one], the IC50 is 10 to 100 nM in test [1], 1000 to 10000 nM in test [2], < 200 nM in test [3] and < 200 nM in test [4].

`Cn1nc(Cc2c(F)cccc2Cl)n(CCC2CCC(C)(C)CC2)c1=O` [Example 16, 5-(2-chloro-6-fluorobenzyl)-4-(2-(4,4-dimethylcyclohexyl)ethyl)-2-methyl-2,4-dihydro-3H-1,2,4-triazol-3-one]: the IC50 in test [1] lay within 10 to 100 nM; in test [2] it was 1000 to 10000 nM; in test [3], 200 to 1000 nM; in test [4] it was 200 to 1000 nM.

Turning to `Cn1nc(Cc2ccccc2C(F)(F)F)n(CC2CCCCC2)c1=O` [Example 17, 4-(cyclohexylmethyl)-2-methyl-5-(2-(trifluoromethyl)benzyl)-2,4-dihydro-3H-1,2,4-triazol-3-one], the IC50 in test [1] was 100 to 1000 nM; in test [2], 1000 to 10000 nM; in test [3], 200 to 1000 nM; in test [4], < 200 nM.

Turning to `Cn1nc(Cc2ccccc2C(F)(F)F)n(CC2CCC(F)(F)CC2)c1=O` [Example 18, 4-((4,4-difluorocyclohexyl)methyl)-2-methyl-5-(2-(trifluoromethyl)benzyl)-2,4-dihydro-3H-1,2,4-triazol-3-one], the IC50 is 10 to 100 nM in test [1], 1000 to 10000 nM in test [2], < 200 nM in test [3] and < 200 nM in test [4].
